“Also recorded” adds a separate entry of the source.
Key:
[1] = biological target: mTOR (Homo sapiens, UniProt P42345); conditions: cited from earlier work
[2] = single- and repeat-dosing; cited from earlier work
[3] = system: dimethylnitrosamine-induced hepatic fibrosis; conditions: cited from earlier work
[4] = biological target: epidermal growth factor (EGF) receptor intracellular domain (Homo sapiens, UniProt P00533); conditions: purified enzymes; cited from earlier work
[5] = system: cardiac fibrosis; conditions: rat, in vivo; cited from earlier work
[6] = system: committed progenitor cells from patients with CML; conditions: cited from earlier work
[7] = biological target: PDGFR-α (Homo sapiens, UniProt P16234); conditions: cellular studies; cited from earlier work
[8] = system: KIT with mutations affecting the activation loop; conditions: cited from earlier work
[9] = system: A10 rat aorta smooth muscle cells; conditions: cited from earlier work
[10] = system: CML; conditions: cited from earlier work
[11] = system: fibrosis; conditions: rat, in vivo; cited from earlier work
[12] = system: KIT with mutations in the juxtamembrane domain-coding region; conditions: cited from earlier work
[13] = system: liver fibrosis; conditions: cited from earlier work
[14] = biological target: kit in H526 cells (Homo sapiens, UniProt P10721); conditions: pretreatment of H526 cells; cited from earlier work
[15] = system: Alpha-1 glycoprotein (AGP); conditions: cited from earlier work
[16] = system: doxorubicin-induced toxicity (heart and kidney); conditions: mortality, abdominal fluid, cardiac and renal lesions; cited from earlier work
[17] = biological target: VEGF-R1 (Homo sapiens, UniProt P17948); conditions: purified enzymes; cited from earlier work
[18] = Sprague-Dawley, rat, in vivo, po, 5.6 mg/kg
[19] = biological target: KIT receptor; conditions: cited from earlier work
[20] = biological target: c-kit (Homo sapiens, UniProt P10721); conditions: kinase activity at 5 μM; cited from earlier work
[21] = chelation of iron(III); format: physicochemical
[22] = system: IPF; conditions: cited from earlier work
[23] = system: bleomycin-induced pulmonary fibrosis; conditions: cited from earlier work
[24] = system: heavy metal challenge; conditions: oral; cited from earlier work
[25] = biological target: fibroblast growth factor receptor 1 (FGF-R1) (Homo sapiens, UniProt P11362); conditions: purified enzymes; cited from earlier work
[26] = in vivo
[27] = system: kidney fibrosis following diabetic challenge; conditions: oral; cited from earlier work
[28] = biological target: VEGF-R2 (Homo sapiens, UniProt P35968); conditions: purified enzymes; cited from earlier work
[29] = system: radiation-induced lung fibrosis; conditions: mouse, in vivo; cited from earlier work
[30] = biological target: PDGFR-β (Homo sapiens, UniProt P09619); conditions: cellular studies; cited from earlier work
[31] = biological target: TIE-2 [TEK] (Homo sapiens, UniProt Q02763); conditions: purified enzymes; cited from earlier work
[32] = chelation of magnesium; format: physicochemical
[33] = in vivo; conditions: Sprague-Dawley, rat
[34] = biological target: T1, TEL-PDGFRβ (Homo sapiens, UniProt P09619); conditions: mouse, in vivo; cited from earlier work
T1 construct: host or cells: transgenic mice; the other entry of the earlier key: ETV6 (P41212, Transcription factor ETV6)

[35] = system: Hepatitis C viral-related liver disease; conditions: oral; cited from earlier work
[36] = system: renal fibrosis; conditions: rat, in vivo; cited from earlier work
[37] = biological target: c-MET (Homo sapiens, UniProt P08581); conditions: purified enzymes; cited from earlier work
[38] = system: PI3K; conditions: cited from earlier work
[39] = system: breast cancer stem cells; conditions: mouse, in vivo; cited from earlier work
[40] = biological target: p110a (Homo sapiens, UniProt P42336); conditions: cited from earlier work
[41] = system: p110-γ and p110-δ; conditions: cited from earlier work
[42] = biological target: JAK2V617F (Homo sapiens, UniProt O60674, V617F); conditions: cited from earlier work
[43] = biological target: CYP3A4 (Homo sapiens, UniProt P08684); conditions: cited from earlier work
[44] = system: lung cancer; conditions: cited from earlier work

T1 sequence (P09619 554-1106 limits assumed): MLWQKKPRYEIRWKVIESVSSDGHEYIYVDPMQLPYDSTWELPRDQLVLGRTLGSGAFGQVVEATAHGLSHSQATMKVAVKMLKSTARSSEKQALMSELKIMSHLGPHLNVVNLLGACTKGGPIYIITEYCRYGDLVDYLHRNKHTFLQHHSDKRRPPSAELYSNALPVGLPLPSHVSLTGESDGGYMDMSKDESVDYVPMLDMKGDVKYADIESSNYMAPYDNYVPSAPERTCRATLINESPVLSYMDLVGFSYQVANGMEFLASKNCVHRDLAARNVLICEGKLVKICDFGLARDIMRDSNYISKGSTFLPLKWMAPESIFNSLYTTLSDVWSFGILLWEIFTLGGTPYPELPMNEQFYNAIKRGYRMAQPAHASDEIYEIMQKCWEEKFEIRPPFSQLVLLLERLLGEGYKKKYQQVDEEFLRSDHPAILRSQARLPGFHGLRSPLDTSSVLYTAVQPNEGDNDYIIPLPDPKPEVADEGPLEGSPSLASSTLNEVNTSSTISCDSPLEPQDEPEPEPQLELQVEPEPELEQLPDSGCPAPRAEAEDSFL
Chain of VEGF-R1 (P17948 27-1338, species assumed): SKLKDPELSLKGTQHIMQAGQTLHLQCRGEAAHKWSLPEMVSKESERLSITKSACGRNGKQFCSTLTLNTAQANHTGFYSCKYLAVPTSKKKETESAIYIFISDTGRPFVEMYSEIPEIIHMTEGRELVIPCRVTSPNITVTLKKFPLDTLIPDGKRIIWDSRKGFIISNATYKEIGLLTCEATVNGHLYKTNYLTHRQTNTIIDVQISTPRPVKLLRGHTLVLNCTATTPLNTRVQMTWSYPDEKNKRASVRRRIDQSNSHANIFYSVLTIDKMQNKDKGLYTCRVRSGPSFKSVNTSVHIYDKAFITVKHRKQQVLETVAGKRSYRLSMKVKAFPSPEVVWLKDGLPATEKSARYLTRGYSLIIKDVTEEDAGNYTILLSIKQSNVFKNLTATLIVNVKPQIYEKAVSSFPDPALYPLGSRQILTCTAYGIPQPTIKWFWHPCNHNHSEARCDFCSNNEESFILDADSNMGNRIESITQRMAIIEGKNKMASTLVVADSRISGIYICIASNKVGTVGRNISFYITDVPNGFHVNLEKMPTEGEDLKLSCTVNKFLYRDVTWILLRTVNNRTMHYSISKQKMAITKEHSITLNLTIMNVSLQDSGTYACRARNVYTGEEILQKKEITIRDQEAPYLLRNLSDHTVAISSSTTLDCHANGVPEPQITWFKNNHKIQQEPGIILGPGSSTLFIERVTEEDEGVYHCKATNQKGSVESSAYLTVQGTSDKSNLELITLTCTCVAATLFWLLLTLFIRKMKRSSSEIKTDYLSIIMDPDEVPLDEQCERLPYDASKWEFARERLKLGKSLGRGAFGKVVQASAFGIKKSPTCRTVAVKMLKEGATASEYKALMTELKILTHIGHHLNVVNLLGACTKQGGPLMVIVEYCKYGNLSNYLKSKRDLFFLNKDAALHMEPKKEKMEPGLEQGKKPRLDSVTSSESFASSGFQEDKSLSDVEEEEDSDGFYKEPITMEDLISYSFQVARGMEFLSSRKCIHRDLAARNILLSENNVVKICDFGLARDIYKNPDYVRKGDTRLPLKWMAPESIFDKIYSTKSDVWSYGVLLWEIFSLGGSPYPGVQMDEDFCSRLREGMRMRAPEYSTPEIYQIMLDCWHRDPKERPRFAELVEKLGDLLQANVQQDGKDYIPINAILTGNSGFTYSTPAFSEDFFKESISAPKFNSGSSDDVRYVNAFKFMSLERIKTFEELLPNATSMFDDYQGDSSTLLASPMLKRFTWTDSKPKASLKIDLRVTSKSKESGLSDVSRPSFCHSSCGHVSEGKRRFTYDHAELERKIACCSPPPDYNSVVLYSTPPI
Chain of CYP3A4 (P08684 whole entry): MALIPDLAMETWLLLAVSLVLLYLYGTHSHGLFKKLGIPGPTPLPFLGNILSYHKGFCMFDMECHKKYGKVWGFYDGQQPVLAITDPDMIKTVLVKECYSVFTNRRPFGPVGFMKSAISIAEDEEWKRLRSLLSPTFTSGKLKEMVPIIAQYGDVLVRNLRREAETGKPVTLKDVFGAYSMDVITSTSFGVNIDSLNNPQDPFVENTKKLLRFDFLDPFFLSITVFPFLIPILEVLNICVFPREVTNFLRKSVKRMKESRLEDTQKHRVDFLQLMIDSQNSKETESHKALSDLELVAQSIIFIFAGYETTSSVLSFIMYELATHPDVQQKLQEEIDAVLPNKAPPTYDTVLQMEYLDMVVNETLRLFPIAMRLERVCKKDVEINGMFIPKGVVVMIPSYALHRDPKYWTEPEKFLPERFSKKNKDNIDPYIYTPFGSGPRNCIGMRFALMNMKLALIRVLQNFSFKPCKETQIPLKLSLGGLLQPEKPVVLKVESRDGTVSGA
Chain of PDGFR-α (P16234 24-1089, species assumed): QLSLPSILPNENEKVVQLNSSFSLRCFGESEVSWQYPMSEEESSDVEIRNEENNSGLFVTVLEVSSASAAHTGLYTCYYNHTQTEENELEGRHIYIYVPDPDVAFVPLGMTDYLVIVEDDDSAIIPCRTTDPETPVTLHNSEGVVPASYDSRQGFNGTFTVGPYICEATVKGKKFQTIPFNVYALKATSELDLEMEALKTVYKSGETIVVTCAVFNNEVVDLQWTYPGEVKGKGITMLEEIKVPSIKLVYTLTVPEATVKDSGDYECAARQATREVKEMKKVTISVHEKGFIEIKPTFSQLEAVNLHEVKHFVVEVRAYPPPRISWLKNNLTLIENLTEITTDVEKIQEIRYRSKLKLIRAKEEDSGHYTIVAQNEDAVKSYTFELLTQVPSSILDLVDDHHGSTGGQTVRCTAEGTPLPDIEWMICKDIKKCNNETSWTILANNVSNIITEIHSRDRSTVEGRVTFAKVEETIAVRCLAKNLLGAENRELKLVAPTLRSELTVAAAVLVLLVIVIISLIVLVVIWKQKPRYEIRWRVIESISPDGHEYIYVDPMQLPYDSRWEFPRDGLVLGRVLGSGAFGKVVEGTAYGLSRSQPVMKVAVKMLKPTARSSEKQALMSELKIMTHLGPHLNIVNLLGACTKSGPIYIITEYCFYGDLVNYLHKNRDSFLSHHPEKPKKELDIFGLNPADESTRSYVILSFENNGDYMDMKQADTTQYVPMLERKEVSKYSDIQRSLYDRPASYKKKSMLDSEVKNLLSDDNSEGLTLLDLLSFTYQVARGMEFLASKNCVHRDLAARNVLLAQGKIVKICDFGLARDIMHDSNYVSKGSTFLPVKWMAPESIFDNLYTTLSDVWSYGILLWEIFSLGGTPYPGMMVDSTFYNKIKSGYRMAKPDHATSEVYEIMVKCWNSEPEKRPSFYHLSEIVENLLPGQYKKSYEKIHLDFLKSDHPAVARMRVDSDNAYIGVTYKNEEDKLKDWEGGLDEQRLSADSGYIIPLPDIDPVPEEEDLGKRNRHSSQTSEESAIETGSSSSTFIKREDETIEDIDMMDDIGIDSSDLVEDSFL
Chain of epidermal growth factor (EGF) receptor intracellular domain (P00533 669-1210 limits assumed): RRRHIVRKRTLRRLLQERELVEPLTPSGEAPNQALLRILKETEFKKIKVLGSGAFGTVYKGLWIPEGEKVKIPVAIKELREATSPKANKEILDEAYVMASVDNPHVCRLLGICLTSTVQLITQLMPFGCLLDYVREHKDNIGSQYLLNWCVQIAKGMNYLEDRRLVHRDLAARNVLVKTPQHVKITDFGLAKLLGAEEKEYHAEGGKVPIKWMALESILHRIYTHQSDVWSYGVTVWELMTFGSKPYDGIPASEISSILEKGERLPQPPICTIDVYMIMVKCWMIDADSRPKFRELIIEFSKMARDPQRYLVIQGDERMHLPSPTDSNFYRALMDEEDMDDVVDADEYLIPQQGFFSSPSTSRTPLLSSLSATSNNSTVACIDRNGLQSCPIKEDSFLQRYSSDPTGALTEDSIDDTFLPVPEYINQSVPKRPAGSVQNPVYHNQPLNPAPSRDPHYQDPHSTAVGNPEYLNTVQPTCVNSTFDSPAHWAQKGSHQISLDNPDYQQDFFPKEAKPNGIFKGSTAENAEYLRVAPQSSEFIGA
Chain of c-kit (P10721 26-976): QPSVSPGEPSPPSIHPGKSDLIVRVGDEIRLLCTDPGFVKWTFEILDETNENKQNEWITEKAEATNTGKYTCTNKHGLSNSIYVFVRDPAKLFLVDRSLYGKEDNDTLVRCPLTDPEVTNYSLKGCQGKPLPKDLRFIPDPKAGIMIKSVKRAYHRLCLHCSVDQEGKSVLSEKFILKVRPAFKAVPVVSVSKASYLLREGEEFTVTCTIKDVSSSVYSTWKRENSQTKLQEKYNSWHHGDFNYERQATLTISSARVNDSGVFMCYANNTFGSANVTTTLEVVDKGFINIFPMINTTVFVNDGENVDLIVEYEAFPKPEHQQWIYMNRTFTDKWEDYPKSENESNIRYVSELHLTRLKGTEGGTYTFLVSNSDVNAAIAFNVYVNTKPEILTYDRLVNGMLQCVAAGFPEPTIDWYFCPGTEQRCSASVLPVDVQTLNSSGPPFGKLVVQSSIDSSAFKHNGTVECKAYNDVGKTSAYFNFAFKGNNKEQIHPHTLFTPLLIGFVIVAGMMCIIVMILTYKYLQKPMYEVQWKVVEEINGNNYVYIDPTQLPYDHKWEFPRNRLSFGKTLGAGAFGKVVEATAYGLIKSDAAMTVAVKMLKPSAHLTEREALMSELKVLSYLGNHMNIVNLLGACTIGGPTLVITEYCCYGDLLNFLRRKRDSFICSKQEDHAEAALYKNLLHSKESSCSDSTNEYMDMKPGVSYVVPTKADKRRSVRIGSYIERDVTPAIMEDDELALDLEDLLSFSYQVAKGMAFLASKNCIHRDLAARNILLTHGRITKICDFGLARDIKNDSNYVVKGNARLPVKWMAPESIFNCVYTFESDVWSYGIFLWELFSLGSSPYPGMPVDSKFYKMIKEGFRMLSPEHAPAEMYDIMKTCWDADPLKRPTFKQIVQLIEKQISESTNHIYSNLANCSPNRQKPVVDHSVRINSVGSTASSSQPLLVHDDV
Chain of kit in H526 cells (P10721 26-976): as above

Cc1c(CN2CCN(S(C)(=O)=O)CC2)sc2c(N3CCOCC3)nc(-c3cnc(N)nc3)nc12 [GNE-477]
IC50 [1]: 0.021 µM

O=C1NC(=O)/C(=C/c2ccc3nccc(-c4ccncc4)c3c2)S1 [GSK1059615]
exposure [2]: lack of sufficient exposure

Cc1ccc(NC(=O)c2ccc(CN3CCN(C)CC3)cc2)cc1Nc1nccc(-c2cccnc2)n1 [imatinib, 4-[(4-methylpiperazin-1-yl)methyl]-N-(4-methyl-3-{[4-(pyridin-3-yl)pyrimidin-2-yl]amino}phenyl)benzamide]
mRNA for type I collagen and transforming growth factor-beta in the liver ([3]; in vivo): suppressed | effect against hepatic fibrosis ([3]; oral): protective effect | hepatic hydroxyproline levels ([3]; oral): reduced | inhibition of EGF receptor intracellular domain [4]: did not inhibit | fibrosis [5]: reversed and prevented fibrosis | colony formation [6]: selective inhibition | receptor inhibition [7]: potent inhibition | sensitivity of KIT mutants [8]: resistant | serum-induced growth [9]: did not affect | patients achieving a complete haematological response ([10]; chronic-phase CML, doses of 300 mg or higher): 98% | maximal tolerated dose ([10]; oral 25 to 1,000 mg per day): no maximal tolerated dose was identified | fibrosis [11]: reversal of fibrosis | inhibition of KIT kinase activity [12]: effective | inhibition of liver fibrosis, early treatment ([13]; Days 0 to 21): effective | inhibition of liver fibrosis, late treatment ([13]; Days 22 to 35): not late | SCF-mediated kit activation [14]: inhibited | binding by AGP [15]: high affinity | severity of doxorubicin-induced toxicity [16]: reduced the severity | inhibition of kinase activity [17]: weak or no inhibition | Lung AUC [18]: 64.1 mg·h/kg | Lung Cmax [18]: 13.0 µg/g | KIT autophosphorylation ([19]; cell line from a GIST patient with an activating Kit mutation): suppress | autophosphorylation of the KIT receptor ([19]; upon binding of stem-cell factor (SCF)): potently inhibited; also recorded: blocks | tyrosine phosphorylation and in vitro kinase activity of c-kit [20]: dose-dependent inhibition | imatinib molecules per iron(III) ion [21]: three | secondary outcome parameters ([22]; DICO, change in PVC, 6-minute walk test): no benefit | incidence of AE-related drop-outs ([22]; dose reduction 600 mg to 400 mg daily allowed): 22% | primary outcome, time to disease progression ([22]; in vivo): no benefit | development of pulmonary fibrosis, early treatment ([23]; Days 0 to 15): significantly prevented | development of pulmonary fibrosis, late treatment ([23]; Days 15 to 28): did not | development of pulmonary fibrosis ([23]; mouse, in vivo): inhibited the development of pulmonary fibrosis | effect against heavy metal challenge [24]: protective effect | inhibition of kinase activity [25]: weak or no inhibition | lung-surface cations [26]: depletion of essential lung-surface cations | effect on fibrosis following diabetic challenge [27]: fibrosis reversal | inhibition of kinase activity [28]: weak or no inhibition | effect on lung fibrosis [29]: antifibrotic effects | receptor inhibition [30]: potent inhibition | inhibition of kinase activity [31]: weak or no inhibition | imatinib molecules to one magnesium ion [32]: two | AUC ([33]; inhaled or intranasal, 1 mg/kg): 0.04 µg·h/mL | Cmax ([33]; inhaled or intranasal, 1 mg/kg): 0.02 µg/mL | AUC ([33]; po, 5.6 mg/kg): 4.9 µg·h/mL | Cmax ([33]; po, 5.6 mg/kg): 1.1 µg/mL | survival of the animals [34]: prolonged survival | tumor formation [34]: inhibited tumor formation | fibrosis and quality of life [35]: decreased fibrosis and improved quality of life | action in renal fibrosis [36]: antifibrotic action | inhibition of kinase activity [37]: weak or no inhibition

CC[C@@H](C(=O)[C@@H](C)[C@@H](O)[C@H](C)[C@@H]1O[C@@H]([C@@H](CC)C(=O)O)CC[C@@H]1C)[C@H]1O[C@]2(C=C[C@@H](O)[C@]3(CC[C@@](C)([C@H]4CC[C@](O)(CC)[C@H](C)O4)O3)O2)[C@H](C)C[C@@H]1C [Salinomycin]
effectiveness relative to paclitaxel [39]: at least 100 times

FC(F)c1nc2ccccc2n1-c1nc(N2CCOCC2)nc(N2CCOCC2)n1 [ZSTK474]
inhibition [40]: potent inhibitor

Nc1nc(N)c2nc(-c3cccc(O)c3)c(-c3cccc(O)c3)nc2n1 [TG100-115]
better potency than against the other isoforms [41]: 5-10 fold

C#Cc1cccc(Nc2ncnc3cc(OCCOC)c(OCCOC)cc23)c1 [Erlotinib]
inhibition of JAK2V617F activity [42]: potent inhibitor | metabolism [43]: mainly metabolized | response rate ([44]; EGFR mutation positive patients): approximately 60% | time to resistance from the start of treatment ([44]; human, in vivo): 8-12 months
